This passage reports IC50 results from US20090018134A1, “Compounds - 945” (AstraZeneca AB, priority 2007, published 2009).

In the experiment the target is T1, mTOR (Homo sapiens, UniProt P42345).
T1 construct: FLAG; made in house
Description: In Vitro mTOR Kinase Assay (Echo), Test (a)(ii). The class given is biochemical. To be noted: table of enzyme assay Test (a)(ii); read-out: Test (a)(ii) IC50. A digest of the protocol: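 Inhibition of truncated mTOR (1362-2549, FLAG-tagged, purified from stably transfected HEK293 cells) is measured as reduced AlphaScreen signal from a phospho-T389-recognising antibody bound to the biotinylated peptide product. Kinase incubation lasts 2 hours at room temperature. Potency is given as IC50.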

T1 sequence (P42345 1362-2549): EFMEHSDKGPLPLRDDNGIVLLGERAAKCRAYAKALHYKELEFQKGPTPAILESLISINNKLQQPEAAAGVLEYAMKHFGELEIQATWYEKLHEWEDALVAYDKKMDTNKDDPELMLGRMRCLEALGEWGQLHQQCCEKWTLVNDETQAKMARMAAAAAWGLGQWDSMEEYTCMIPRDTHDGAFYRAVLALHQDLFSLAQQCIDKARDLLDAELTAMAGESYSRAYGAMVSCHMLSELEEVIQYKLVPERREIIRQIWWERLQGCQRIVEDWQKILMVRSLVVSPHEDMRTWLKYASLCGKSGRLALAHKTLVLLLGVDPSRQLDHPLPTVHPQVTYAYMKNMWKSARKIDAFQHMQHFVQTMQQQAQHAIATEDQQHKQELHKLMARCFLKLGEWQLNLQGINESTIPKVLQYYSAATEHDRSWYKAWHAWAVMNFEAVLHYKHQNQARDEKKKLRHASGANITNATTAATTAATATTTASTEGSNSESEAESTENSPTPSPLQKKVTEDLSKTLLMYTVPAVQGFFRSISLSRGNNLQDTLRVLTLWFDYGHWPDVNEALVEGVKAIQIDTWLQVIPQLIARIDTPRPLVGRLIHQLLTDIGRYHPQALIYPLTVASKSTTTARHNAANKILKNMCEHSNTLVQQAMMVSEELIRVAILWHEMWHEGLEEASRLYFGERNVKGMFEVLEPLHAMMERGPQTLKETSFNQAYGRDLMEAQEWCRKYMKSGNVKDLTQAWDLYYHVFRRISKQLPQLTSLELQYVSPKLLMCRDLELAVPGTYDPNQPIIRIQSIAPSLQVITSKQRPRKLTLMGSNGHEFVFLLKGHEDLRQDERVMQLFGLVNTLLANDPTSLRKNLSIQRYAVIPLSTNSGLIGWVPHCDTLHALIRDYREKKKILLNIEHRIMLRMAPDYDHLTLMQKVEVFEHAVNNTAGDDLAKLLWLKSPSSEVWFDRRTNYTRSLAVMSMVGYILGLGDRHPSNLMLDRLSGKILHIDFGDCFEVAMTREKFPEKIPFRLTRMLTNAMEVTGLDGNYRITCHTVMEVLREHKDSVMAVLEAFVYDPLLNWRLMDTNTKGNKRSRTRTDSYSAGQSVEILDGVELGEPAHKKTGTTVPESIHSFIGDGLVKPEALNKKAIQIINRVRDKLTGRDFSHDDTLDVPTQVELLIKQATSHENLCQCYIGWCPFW

For the compound `C[C@H]1COCCN1c1cc(C2(S(=O)(=O)c3ccccn3)CCCC2)nc(-c2ccc(NC(=O)NCCCO)cc2)n1` [Example 36ae, 3-(3-hydroxypropyl)-1-[4-[4-[(3S)-3-methylmorpholin-4-yl]-6-(1-pyridin-2-ylsulfonylcyclopentyl)pyrimidin-2-yl]phenyl]urea], the IC50 was found to be 15.1 nM.
On to `C[C@H]1COCCN1c1cc(C2(S(=O)(=O)c3ccccn3)CCC2)nc(-c2ccc(NC(=O)NC3CC3)cc2)n1` [Example 36af, 3-cyclopropyl-1-[4-[4-[(3S)-3-methylmorpholin-4-yl]-6-(1-pyridin-2-ylsulfonylcyclobutyl)pyrimidin-2-yl]phenyl]urea], for which the IC50 turned out to be 2.75 nM.
In the case of `CNC(=O)Nc1ccc(-c2nc(N3CCOC[C@@H]3C)cc(C3(S(=O)(=O)c4ccccn4)CCC3)n2)cc1` [Example 36ag, 3-methyl-1-[4-[4-[(3S)-3-methylmorpholin-4-yl]-6-(1-pyridin-2-ylsulfonylcyclobutyl)pyrimidin-2-yl]phenyl]urea] it was 1.3 nM.
In the case of `C[C@H]1COCCN1c1cc(C2(S(=O)(=O)c3ccccn3)CCC2)nc(-c2ccc(NC(=O)NCCO)cc2)n1` [Example 36ah, 3-(2-hydroxyethyl)-1-[4-[4-[(3S)-3-methylmorpholin-4-yl]-6-(1-pyridin-2-ylsulfonylcyclobutyl)pyrimidin-2-yl]phenyl]urea], the IC50 amounted to 2.47 nM.
The result for `C[C@H]1COCCN1c1cc(C2(S(=O)(=O)c3ccccn3)CCC2)nc(-c2ccc(NC(=O)NCCC#N)cc2)n1` [Example 36ai, 3-(2-cyanoethyl)-1-[4-[4-[(3S)-3-methylmorpholin-4-yl]-6-(1-pyridin-2-ylsulfonylcyclobutyl)pyrimidin-2-yl)phenyl]urea] reads 5.61 nM.
Turning to `C[C@H]1COCCN1c1cc(C2(S(=O)(=O)c3ccccn3)CCC2)nc(-c2ccc(NC(=O)NCc3ncc[nH]3)cc2)n1` [Example 36ak, 3-(1H-imidazol-2-ylmethyl)-1-[4-[4-[(3S)-3-methylmorpholin-4-yl]-6-(1-pyridin-2-ylsulfonylcyclobutyl)pyrimidin-2-yl]phenyl]urea], the IC50 worked out at 2.45 nM.
In the case of `O=C(Nc1ccc(-c2nc(N3CCOCC3)cc(C3(S(=O)(=O)c4ccc(F)cc4)CC3)n2)cc1)Nc1ncns1` [Example 36an, 1-[4-[4-[1-(4-fluorophenyl)sulfonylcyclopropyl]-6-morpholin-4-ylpyrimidin-2-yl]phenyl]-3-(1,2,4-thiadiazol-5-yl)urea] it was 10.4 nM; in that of `CCNC(=O)Nc1ccc(-c2nc(N3CCOCC3)cc(C3(S(=O)(=O)c4ccc(F)cc4)CC3)n2)cc1` [Example 36ao, 1-ethyl-3-[4-[4-[1-(4-fluorophenyl)sulfonylcyclopropyl]-6-morpholin-4-ylpyrimidin-2-yl]phenyl]urea], 14 nM; in that of `CNC(=O)Nc1ccc(-c2nc(N3CCOCC3)cc(C3(S(=O)(=O)c4ccc(F)cc4)CC3)n2)cc1` [Example 36ap, 3-[4-[4-[1-(4-fluorophenyl)sulfonylcyclopropyl]-6-morpholin-4-ylpyrimidin-2-yl]phenyl]-1-methylurea], 15.6 nM.
In the case of `Cn1cc(NC(=O)Nc2ccc(-c3nc(N4CCOCC4)cc(C4(S(=O)(=O)c5ccc(F)cc5)CC4)n3)cc2)cn1` [Example 36aq, 3-[4-[4-[1-(4-fluorophenyl)sulfonylcyclopropyl]-6-morpholin-4-ylpyrimidin-2-yl]phenyl]-1-(1-methylpyrazol-4-yl)urea] it was 15.7 nM; in that of `O=C(NCCO)Nc1ccc(-c2nc(N3CCOCC3)cc(C3(S(=O)(=O)c4ccncc4)CC3)n2)cc1` [Example 36ar, 3-(2-hydroxyethyl)-1-[4-[4-morpholin-4-yl-6-(1-pyridin-4-ylsulfonylcyclopropyl)pyrimidin-2-yl]phenyl]urea], 9.45 nM; in that of `Cn1cc(NC(=O)Nc2ccc(-c3nc(N4CCOCC4)cc(C4(S(=O)(=O)c5ccncc5)CC4)n3)cc2)cn1` [Example 36as, 1-(1-methylpyrazol-4-yl)-3-[4-[4-morpholin-4-yl-6-(1-pyridin-4-ylsulfonylcyclopropyl)pyrimidin-2-yl]phenyl]urea], 9.11 nM.
For `CNC(=O)Nc1ccc(-c2nc(N3CCOCC3)cc(C3(S(=O)(=O)c4ccncc4)CC3)n2)cc1` [Example 36at, 1-methyl-3-[4-[4-morpholin-4-yl-6-(1-pyridin-4-ylsulfonylcyclopropyl)pyrimidin-2-yl]phenyl]urea], the IC50 turned out to be 6.39 nM.
For the compound `CCNC(=O)Nc1ccc(-c2nc(N3CCOCC3)cc(C3(S(=O)(=O)c4ccncc4)CC3)n2)cc1` [Example 36au, 1-ethyl-3-[4-[4-morpholin-4-yl-6-(1-pyridin-4-ylsulfonylcyclopropyl)pyrimidin-2-yl]phenyl]urea], the IC50 was 12.1 nM.
The result for `O=C(Nc1ccc(-c2nc(N3CCOCC3)cc(C3(S(=O)(=O)c4ccncc4)CC3)n2)cc1)NC1CC1` [Example 36av, 3-cyclopropyl-1-[4-[4-morpholin-4-yl-6-(1-pyridin-4-ylsulfonylcyclopropyl)pyrimidin-2-yl]phenyl]urea] reads 9.95 nM; that for `N#CCCNC(=O)Nc1ccc(-c2nc(N3CCOCC3)cc(C3(S(=O)(=O)c4ccncc4)CC3)n2)cc1` [Example 36aw, 3-(2-cyanoethyl)-1-[4-[4-morpholin-4-yl-6-(1-pyridin-4-ylsulfonylcyclopropyl)pyrimidin-2-yl]phenyl]urea], 16.4 nM; that for `O=C(NCCCO)Nc1ccc(-c2nc(N3CCOCC3)cc(C3(S(=O)(=O)c4ccncc4)CC3)n2)cc1` [Example 36ax, 3-(3-hydroxypropyl)-1-[4-[4-morpholin-4-yl-6-(1-pyridin-4-ylsulfonylcyclopropyl)pyrimidin-2-yl]phenyl]urea], 21.1 nM.
The result for `C[C@H]1COCCN1c1cc(C2(S(C)(=O)=O)CC2)nc(-c2ccc(NC(=O)Nc3nccs3)cc2)n1` [Example 36ay, 1-[4-[4-[(3S)-3-methylmorpholin-4-yl]-6-(1-methylsulfonylcyclopropyl)pyri-midin-2-yl]phenyl]-3-(1,3-thiazol-2-yl)urea] reads 1.17 nM.
For `C[C@H]1COCCN1c1cc(C2(S(=O)(=O)CCCO)CC2)nc(-c2ccc(NC(=O)Nc3ncns3)cc2)n1` [Example 36b, 1-[4-[4-[1-(3-hydroxypropylsulfonyl)cyclopro-pyl]-6-[(3S)-3-methylmorpholin-4-yl]pyrimidin-2-yl]phenyl]-3-(1,2,4-thiadiazol-5-yl)urea], the IC50 was 1.79 nM.
The result for `C[C@H]1COCCN1c1cc(C2(S(=O)(=O)c3ccccc3)CC2)nc(-c2ccc(NC(=O)NC3CCC3)cc2)n1` [Example 36bd, 1-[4-[4-[1-(benzenesulfonyl)cyclopropyl]-6-[(3S)-3-methylmorpholin-4-yl]pyrimidin-2-yl]phenyl]-3-cyclobutylurea] reads 2.58 nM; that for `C[C@H]1COCCN1c1cc(C2(S(=O)(=O)c3ccccc3)CC2)nc(-c2ccc(NC(=O)NCC(O)C(F)(F)F)cc2)n1` (stereo partly drawn) [Example 36be, 1-[4-[4-[1-(benzenesulfonyl)cyclopropyl]-6-[(3S)-3-methylmorpholin-4-yl]pyrimidin-2-yl]phenyl]-3-(3,3,3-trifluoro-2-hydroxypropyl)urea], 3.76 nM; that for `CC(C)NC(=O)Nc1ccc(-c2nc(N3CCOC[C@@H]3C)cc(C3(S(=O)(=O)c4ccccc4)CC3)n2)cc1` [Example 36bf, 1-[4-[4-[1-(benzenesulfonyl)cyclopropyl]-6-[(3S)-3-methylmorpholin-4-yl]pyrimidin-2-yl]phenyl]-3-propan-2-ylurea], 4.57 nM.
The result for `CCCNC(=O)Nc1ccc(-c2nc(N3CCOC[C@@H]3C)cc(C3(S(=O)(=O)c4ccccc4)CC3)n2)cc1` [Example 36bi, 3-[4-[4-[1-(benzenesulfonyl)cyclopropyl]-6-[(3S)-3-methylmorpholin-4-yl]pyrimidin-2-yl]phenyl]-1-propylurea] reads 2.31 nM; that for `C[C@H]1COCCN1c1cc(C2(S(=O)(=O)c3ccccc3)CC2)nc(-c2ccc(NC(=O)NC(C)(C)CO)cc2)n1` [Example 36bk, 1-[4-[4-[1-(benzenesulfonyl)cyclopropyl]-6-[(3S)-3-methylmorpholin-4-yl]pyrimidin-2-yl]phenyl]-3-(1-hydroxy-2-methylpropan-2-yl)urea], 4.33 nM; that for `C[C@H]1COCCN1c1cc(C2(S(=O)(=O)c3ccccc3)CC2)nc(-c2ccc(NC(=O)NCCC#N)cc2)n1` [Example 36bm, 1-[4-[4-[1-(benzenesulfonyl)cyclopropyl]-6-[(3S)-3-methylmorpholin-4-yl]pyrimidin-2-yl]phenyl]-3-(2-cyanoethyl)urea], 1.93 nM.
In the case of `C[C@H]1COCCN1c1cc(C2(S(=O)(=O)c3ccccc3)CC2)nc(-c2ccc(NC(=O)NCc3ncc[nH]3)cc2)n1` [Example 36bn, 1-[4-[4-[1-(benzenesulfonyl)cyclopropyl]-6-[(3S)-3-methylmorpholin-4-yl]pyrimidin-2-yl]phenyl]-3-(1H-imidazol-2-ylmethyl)urea] it was 6.37 nM.
Regarding `C[C@H]1COCCN1c1cc(C2(S(=O)(=O)c3ccccc3)CC2)nc(-c2ccc(NC(=O)NC3(CO)CC3)cc2)n1` [Example 36bo, 1-[4-[4-[1-(benzenesulfonyl)cyclopropyl]-6-[(3S)-3-methylmorpholin-4-yl]pyrimidin-2-yl]phenyl]-3-[1-(hydroxymethyl)cyclopropyl]urea], the IC50 worked out at 17.6 nM.
In the case of `C[C@H]1COCCN1c1cc(C2(S(=O)(=O)c3ccccc3)CC2)nc(-c2ccc(NC(=O)NC3COC3)cc2)n1` [Example 36bp, 1-[4-[4-[1-(benzenesulfonyl)cyclopropyl]-6-[(3S)-3-methylmorpholin-4-yl]pyrimidin-2-yl]phenyl]-3-(oxetan-3-yl)urea] it was 1.98 nM; in that of `C[C@H]1COCCN1c1cc(C2(S(=O)(=O)c3ccccc3)CC2)nc(-c2ccc(NC(=O)Nc3ncns3)cc2)n1` [Example 36bq, 1-[4-[4-[1-(benzenesulfonyl)cyclopropyl]-6-[(3S)-3-methylmorpholin-4-yl]pyrimidin-2-yl]phenyl]-3-(1,2,4-thiadiazol-5-yl)urea], 1.31 nM.
